According to US20120101099A1, “HISTONE DEACETYLASE INHIBITORS” (ANTHEM BIOSCIENCES PRIVATE LIMITED, priority 2009, published 2012):
Counter-ions that a name gives are not always drawn. Like-named read-outs stand apart in the source and are kept apart here.

Legend:
A549 = experiment: Cell proliferation assay (MTT); type: cell-based; details: Homo sapiens, A549
Procedure: (§1) Cells were seeded in a 96-well cell culture plates at a concentration of 10,000 cells per well and incubated at 37° C. in CO2 incubator.
(§2) Twenty-four hours later cells were treated with different concentrations (100, 10, 1, 0.1, and 0.01 μM) of compound dissolved in DMSO and incubated for 48 hours. For To measurement, 24 hours after seeding the cells, 20 μL of 3-(4.5-dimethyl-2- thiazolyl)-2,5-diphenyl-2H-tetrazolium (MTT) solution per well was added to the T0 plate and incubated for 3 hours at 37° C. in a CO2 incubator.
(§3) The plate containing cells and test compounds was treated similarly after 48 hours of incubation. After 3 hours of MTT addition, well contents were aspirated carefully followed by addition of 100 μL DMSO per well. Plates were agitated to ensure dissolution of the formazan crystals in DMSO and absorbance was read at 570 nm (A570). […] From the percentage growths a dose response curve was generated and GI50 values were interpolated from the growth curves.

HT-29 = experiment: Cell proliferation assay (MTT); type: cell-based; details: Homo sapiens, HT-29
Procedure: as §1, §2, §3

PC-3 = experiment: Cell proliferation assay (MTT); type: cell-based; details: Homo sapiens, PC-3
Procedure: as §1, §2, §3

[1] = test system: human HDAC (Hela cells nuclear extract); experiment: HDAC activity screening, Hela nuclear extract, Boc-Lys(Ac)-AMC substrate; type: biochemical; details: for HDAC % Inhibition (1 μM): 1 μM compound; for HDAC % Inhibition (10 μM): 10 μM compound
Procedure: To study the human HDAC inhibition the in-house 96 well plate assay have been established using fluorescent substrate (Boc-Lys (Ac)-AMC Substrate). Hela cells nuclear extract have been used as enzyme source.
Assay was performed in 96-well black microplate and total volume of the assay was 100 μL. Hela nuclear extract was diluted HDAC assay buffer (final concentration of 3.0 μg/mL). Enzyme mixture was made of 10 μL of diluted enzyme and 30 μL of HDAC buffer. 40 μl of enzyme mixture followed by 10 μL of test compound (final concentration from 0.01 to 10 μM) or vehicle (control) was added to each well. The plate was pre-incubated at 37° C. for 10 minutes. The HDAC reaction was started by adding 50 μl of HDAC substrate Boc-Lys (Ac)-AMC (Anaspec, Inc Fremont, Calif., USA). The plate was incubated at 37° C. for 45 minutes. The reaction was stopped by adding 50 μL of Trypsin stop solution and plate further incubated at 37° C. for 15 minutes. Measuring the fluorescence at excitation wavelength of 360 nm and emission wavelength of 460 nm monitored the release of AMC. Buffer alone and substrate alone served as blank.

[2] = Metabolic stability in mouse liver microsomes; type: in vitro ADME; details: 100 μM, 37° C.
Procedure: The objective of the study is to determine the metabolic stability of the compounds in mouse liver microsomes. Brief procedure: metabolic stability of test compounds were carried out using mouse liver microsomes. The final composition of the assay includes test compound 100 μM (dissolved in DMSO), mouse microsomal protein 0.5 mg/mL and cofactors (G-6-P 5.0 mM, G-6-PDH 0.06 U, MgCl2 2.0 mM, NADP+1.0 mM, UDPGA 0.5 mM, PAPS 0.6 mM and GSH 1 mM). The test compounds were incubated at with mouse liver microsomes with cofactors. After 1 h incubation at 37° C., the reaction was stopped by addition of stop solution (ice cold acetonitrile). The samples were centrifuged and supernatants were analysed using LC/MS/MS. The Percent of parent test compounds remaining after 1 h of incubation time was calculated with respect to the peak areas of at time 0.

ACHN = experiment: Anti-proliferative activity (GI50); type: cell-based; details: Homo sapiens, Table 9, Renal, read-out: Anti-proliferative activity (GI50) ACHN
Procedure: as §1, §2, §3

Ca Ski = experiment: Anti-proliferative activity (GI50); type: cell-based; details: Homo sapiens, Table 9, Cervix, read-out: Anti-proliferative activity (GI50) Ca Ski
Procedure: as §1, §2, §3

DU-145 = experiment: Anti-proliferative activity (GI50); type: cell-based; details: Homo sapiens, DU-145; Table 9; Prostate; read-out: Anti-proliferative activity (GI50) DU-145
Procedure: as §1, §2, §3

HCT-116 = experiment: Anti-proliferative activity (GI50); type: cell-based; details: Homo sapiens, HCT-116; Table 9; Colon; read-out: Anti-proliferative activity (GI50) HCT-116
Procedure: as §1, §2, §3

K562 = experiment: Anti-proliferative activity (GI50); type: cell-based; details: Homo sapiens, K562; Table 9; Leukemia; read-out: Anti-proliferative activity (GI50) K562
Procedure: as §1, §2, §3

KHOS = experiment: Anti-proliferative activity (GI50); type: cell-based; details: Table 9; Bone; read-out: Anti-proliferative activity (GI50) KHOS
Procedure: as §1, §2, §3

MCF-7 = experiment: Anti-proliferative activity (GI50); type: cell-based; details: Homo sapiens, MCF7; Table 9; Breast; read-out: Anti-proliferative activity (GI50) MCF-7
Procedure: as §1, §2, §3

U-87-MG = experiment: Anti-proliferative activity (GI50); type: cell-based; details: Homo sapiens, Table 9, Brain, read-out: Anti-proliferative activity (GI50) U-87-MG
Procedure: as §1, §2, §3

acetyl-Histone H3 = experiment: Histone hyperacetylation in Hela cells (Western Blot); type: cell-based; parameters: key: represented by the symbol ‘+’ which indicates the relative extent of modulation; ++: represented by the symbol ‘+’ which indicates the relative extent of modulation; +++: represented by the symbol ‘+’ which indicates the relative extent of modulation; ++++: represented by the symbol ‘+’ which indicates the relative extent of modulation; details: 24 hrs, 0.03-3.0 μM
Procedure: (§4) HeLa Cells were seeded at a density of 0.4×10^6 Cells/well into 6 well plates and incubated for 24 h The compounds were tested at 5 different concentrations (0.03, 0.1, 0.3, 1.0, 3.0 μM) with corresponding control. After 24 hrs cells were lysed and histone proteins were extracted as per established protocols and the extract was used for measuring H3 and H4 hyperacetylation by Western Blot using Anti-acetyl-Histone H3 and Anti-acetyl-Histone H4 (Millipore, USA) antibodies.

acetyl-Histone H4 = experiment: as above; type: cell-based; parameters: key: represented by the symbol ‘+’ which indicates the relative extent of modulation; ++: represented by the symbol ‘+’ which indicates the relative extent of modulation; +++: represented by the symbol ‘+’ which indicates the relative extent of modulation; ++++: represented by the symbol ‘+’ which indicates the relative extent of modulation; details: 24 hrs, 0.03-3.0 μM
Procedure: as §4

[3] = Table 1, MTT, 48 hours, read-out: Cell growth inhibition (GI50 in μM) A549
[4] = Table 9, Lung, read-out: Anti-proliferative activity (GI50) A549
[5] = Table 9, Colon, read-out: Anti-proliferative activity (GI50) HT-29
[6] = Table 1, MTT, 48 hours, read-out: Cell growth inhibition (GI50 in μM) PC-3
[7] = Table 9, Prostate, read-out: Anti-proliferative activity (GI50) PC-3
[8] = read-out: IC50 (50% HDAC inhibitory concentration), Table 2, Hela nuclear extract
[9] = Table 1, MTT, 48 hours, read-out: Cell growth inhibition (GI50 in μM) HT-29

O=C(NO)c1ccc(Cn2cc(-c3ccc(CN4CCOCC4)cc3)nn2)cc1 [Example 9, N-Hydroxy-4-[4-(4-morpholin-4-ylmethyl-phenyl)-[1,2,3]triazol-1-ylmethyl]-benzamide]
GI50 (A549; [3]): 5 ± 1.6 µM
GI50 (A549; [4]): 4.5 ± 2.33 µM
GI50 (HT-29; [5]): 1.5 ± 0.65 µM
GI50 (PC-3; [6]): 22 ± 5.4 µM
GI50 (PC-3; [7]): 13.4 ± 3.3 µM
HDAC % Inhibition (1 μM) ([1]; Hela nuclear extract): 91%
HDAC % Inhibition (10 μM) ([1]; Hela nuclear extract): 99%
IC50 [1, 8]: 57 nM
% Stable compounds after 1 hr incubation [2]: 100%
GI50 (ACHN): 700 ± 110 nM
GI50 (Ca Ski): 1200 ± 220 nM
GI50 (DU-145): 300 ± 124 nM
GI50 (HCT-116): 1200 ± 18 nM
GI50 (K562): 300 ± 74 nM
GI50 (KHOS): 2800 ± 360 nM
GI50 (MCF-7): 5700 ± 1620 nM
GI50 (U-87-MG): 2700 ± 740 nM
Target modulation: H3 acetylation (acetyl-Histone H3): ++++
Target modulation: H4 acetylation (acetyl-Histone H4): ++++

O=C(/C=C/c1cccc(Cn2cc(-c3ccc(CN4CCOCC4)cc3)nn2)c1)NO [Example 25, N-Hydroxy-3-{3-[4-(4-morpholin-4-ylmethyl-phenyl)-[1,2,3]triazol-1-ylmethyl]-phenyl}-acrylamide hydrochloride]
GI50 (A549; [3]): 2.5 ± 0.8 µM
GI50 (A549; [4]): 2 ± 1.52 µM
GI50 (HT-29; [9]): 0.2 µM
GI50 (HT-29; [5]): 0.4 ± 0.13 µM
GI50 (PC-3; [6]): 4 ± 3.9 µM
GI50 (PC-3; [7]): 1.7 ± 1.02 µM
HDAC % Inhibition (1 μM) ([1]; Hela nuclear extract): 100%
HDAC % Inhibition (10 μM) ([1]; Hela nuclear extract): 101%
IC50 [1, 8]: 1 nM
% Stable compounds after 1 hr incubation [2]: 57%
GI50 (ACHN): 200 ± 80 nM
GI50 (Ca Ski): 400 ± 280 nM
GI50 (DU-145): 100 ± 30 nM
GI50 (HCT-116): 200 ± 50 nM
GI50 (K562): 200 ± 80 nM
GI50 (KHOS): 4600 ± 550 nM
GI50 (MCF-7): 2100 ± 2630 nM
GI50 (U-87-MG): 1100 ± 730 nM
Target modulation: H3 acetylation (acetyl-Histone H3): ++++
Target modulation: H4 acetylation (acetyl-Histone H4): ++++

O=C(NO)c1ccc(Cn2cc(-c3ccc(CN4CCCC4)cc3)nn2)cc1 [Example 8, N-Hydroxy-4-[4-(4-pyrrolidin-1-ylmethyl-phenyl)-[1,2,3]triazol-1-ylmethyl]-benzamide]
GI50 (A549; [3]): 4.1 ± 0.6 µM
GI50 (A549; [4]): 3.1 ± 1.99 µM
GI50 (HT-29; [9]): 0.2 µM
GI50 (HT-29; [5]): 1.3 ± 0.33 µM
GI50 (PC-3; [6]): 16.8 ± 8.8 µM
GI50 (PC-3; [7]): 4.1 ± 0.38 µM
HDAC % Inhibition (1 μM) ([1]; Hela nuclear extract): 95%
HDAC % Inhibition (10 μM) ([1]; Hela nuclear extract): 100%
IC50 ([1]; Table 8, read-out: IC50 (nM) Hela nuclear extract): 3 nM
IC50 [1, 8]: 3 nM
% Stable compounds after 1 hr incubation [2]: 100%
GI50 (ACHN): 300 ± 140 nM
GI50 (Ca Ski): 1100 ± 490 nM
GI50 (DU-145): 200 ± 60 nM
GI50 (HCT-116): 100 ± 40 nM
GI50 (K562): 300 ± 60 nM
GI50 (KHOS): 2400 ± 400 nM
GI50 (MCF-7): 2600 ± 1260 nM
GI50 (U-87-MG): 500 ± 90 nM
Target modulation: H3 acetylation (acetyl-Histone H3): +++
Target modulation: H4 acetylation (acetyl-Histone H4): ++++
